According to paper PMC5522529, “Mechanisms of Paradoxical Activation of AMPK by the Kinase Inhibitors SU6656 and Sorafenib” (Cell Chemical Biology, 2017):

Columns and labels:
AMPK-γ2 (WT) = molecular target: T1, AMPK-γ2 (WT) (Homo sapiens, UniProt Q9UGJ0); assay: AMPK activity in HEK293 cells expressing WT AMPK-γ2; assay type: cell-based; conditions: 1 hr
T1 construct: expressed in transfected cells; host or cells: Flp-In T-REx 293 (HEK293), tetracycline-inducible
Text: (§1) The next possibility was that, like several other AMPK-activating drugs, SU6656 inhibits mitochondrial ATP synthesis, and thus activates AMPK indirectly by increasing cellular AMP/ADP. To test this, we used cell lines inducibly expressing either WT AMPK-γ2 or an AMP/ADP-resistant R531G (RG) mutant ([Hawley et al., 2010]). […] There were no effects of SU6656 on cellular oxygen uptake, unlike berberine. Subsequent addition of the uncoupler 2,4-dinitrophenol (DNP), which prevents the respiratory chain from being limited by ADP supply, increased oxygen uptake identically in control and SU6656-treated cells but had no effect following berberine, as expected for a complex I inhibitor (Figure S2).
(§2) (B) WT or RG cells were treated as in (A) and nucleotides extracted for analysis (mean ± SD, n = 3). […] (E) (See also Figure S2) Time courses of cellular oxygen uptake before and after addition of the indicated concentrations of sorafenib (SO, μM), SU6656 (100 μM) or phenformin (PHEN, 10 mM) (mean ± SEM, n = 4). (F) Effect of various concentrations of sorafenib or phenformin (10 mM) on activation (top, mean ± SEM, n = 3) or phosphorylation (bottom) of AMPK in cells expressing wild-type AMPK-γ2 (WT) or the R531G mutant AMPK-γ2 (RG). In all panels, asterisks show significant differences from DMSO controls (ns, not significant). In (B), daggers (†) show significant differences between results in WT and RG cells. *p < 0.05, **p < 0.01, ***p < 0.001, ****p < 0.0001, ^††††p < 0.0001.
(§3) HEK-293 cells stably expressing tetracycline-inducible FLAG-tagged human AMPK-γ2, or an R531G mutant, were generated by introducing the corresponding DNAs into Flp-In™ T-REx™ 293 cells ([Auciello et al., 2014]). Expression of the FLAG-tagged constructs was induced for 48 hr using tetracycline (1 μg.ml^-1) prior to addition of compounds under test. Transient transfections were carried out 36-48 hr prior to experiments, using Fugene 6 according to manufacturers’ instructions.

[1] = molecular target: T2, AMPK-γ2 R531G (RG) mutant (Homo sapiens, UniProt Q9UGJ0, R531G); assay: AMPK activity in HEK293 cells expressing R531G AMPK-γ2; assay type: cell-based; conditions: 1 hr
T2 construct: expressed in transfected cells
Text: as §1, §2, §3

HEK293 cells = assay: Cellular oxygen uptake; assay type: cell-based, human
Experimental: as §2
Cellular oxygen consumption rate was measured using a Seahorse XF24 Extracellular Flux Analyser according to manufacturers’ instructions, as specified previously ([Hawley et al., 2010]).
Oxygen uptake of HEK-293 cells measured under basal conditions
(open bars), after addition of the indicated concentration of SU6656 or berberine (300 µM) (gray bars), then after subsequent addition of the uncoupler 2,4-dinitrophenol (DNP, hatched bars, 100 µM) […]
different before and after addition of SU6656 or berberine, while […]
subsequent addition of DNP.

AMPK-α1 (WT) = molecular target: T3, AMPK-α1 (WT) (Homo sapiens, UniProt Q13131); assay: AMPK activity of FLAG-tagged AMPK-α1 (WT) expressed in HEK293 cells; assay type: cell-based; conditions: for AMPK activity and Thr172 phosphorylation: WT FLAG-α1, A769662 300 μM, berberine 300 μM, phenformin 10 mM, troglitazone 100 μM, oligomycin 1 μM, SU6656 100 μM
T3 construct: we expressed FLAG-tagged full-length AMPK-α1 either as the WT or the AT mutant; expressed in transfected cells; host or cells: HEK293
Text: (B) Western blotting of the same preparations as in (A). […] (D) Allosteric activation of WT and mutant α1β1γ1 complexes by MT 63-78, curve fitting as for (C). […] (E) Allosteric activation of WT and mutant α1β1γ1 complexes by AMP. Data were fitted to the equation for activation/inactivation by AMP ([Gowans et al., 2013]). […] (F) Activation of WT and AA mutant by various AMPK activators in HEK293 cells. […] FLAG-tagged complexes were isolated by immunoprecipitation and AMPK activity determined (mean ± SEM, n = 2).
We next expressed the FLAG-tagged WT or AA mutant of AMPK-α1 by transient transfection in HEK293 cells, treated with various agents, and measured AMPK activity in anti-FLAG immunoprecipitates. In Figure 4F, the results are expressed as absolute activities and are accompanied by blots showing Thr172 phosphorylation.
The α1-KD was precipitated using anti-FLAG and endogenous AMPK complexes using anti-α1 antibody, and activity determined. […] (B) Western blots (n = 2) using the indicated antibodies; samples from experiment in (A). (C) DNAs encoding FLAG-tagged AMPK-α1 (WT or AT mutant) were expressed by transient transfection in HEK293 cells, the cells treated with increasing concentrations of SU6656 for 1 hr, AMPK complexes precipitated with anti-FLAG, and activity measured.

[2] = molecular target: T4, endogenous full-length α1 complexes (Homo sapiens, UniProt Q13131); assay: Activity of endogenous full-length α1 complexes in HEK293 cells; assay type: cell-based; conditions: 1 hr
T4 construct: endogenous in cells
Text: (§4) We next expressed an FLAG-tagged α1 kinase domain (α1-KD, residues 1–312) by transient transfection in HEK293 cells, treated the cells with various AMPK activators, and then assayed both the expressed α1-KD (precipitated using anti-FLAG) and endogenous full-length α1 complexes (precipitated using anti-α1 antibodies recognizing an epitope outside the α1-KD). […] This was also observed with A23187, as expected since this ionophore increases intracellular Ca^2+ and activates the alternate upstream kinase CaMKK2.
(§5) The α1-KD was precipitated using anti-FLAG and endogenous AMPK complexes using anti-α1 antibody, and activity determined. Results (mean ± SD, n = 2) are expressed relative to activities in DMSO controls. (B) Western blots (n = 2) using the indicated antibodies; samples from experiment in (A). (C) DNAs encoding FLAG-tagged AMPK-α1 (WT or AT mutant) were expressed by transient transfection in HEK293 cells, the cells treated with increasing concentrations of SU6656 for 1 hr, AMPK complexes precipitated with anti-FLAG, and activity measured. Results (mean ± SD, n = 3) are expressed relative to the DMSO control. […] Results (mean ± SD, n = 3) are expressed relative to the DMSO control. **p < 0.01, ***p < 0.001, ****p < 0.0001, ^†††p < 0.001; ns, not significant.

[3] = molecular target: T5, α1 kinase domain (α1-KD, residues 1–312) (Homo sapiens, UniProt Q13131); assay: Activity of FLAG-tagged α1 kinase domain expressed in HEK293 cells; assay type: cell-based; conditions: 1 hr
T5 construct: amplifying residues 1-312 with an N-terminal FLAG-tag; expressed in transfected cells; host or cells: HEK293 (transient transfection, pcDNA5 FRT)
Text: as §4, §5
A plasmid encoding the AMPK-α2 kinase domain (α2-KD) was made by amplifying residues 1-310 with 5' BamH1 and 3' Xho1 sites, the resulting PCR product was cloned into pGEX6P2. Point mutations were generated using the Quikchange II site-directed mutagenesis kit (Stratagene) and confirmed by DNA sequencing.

T3 sequence (Q13131 whole entry): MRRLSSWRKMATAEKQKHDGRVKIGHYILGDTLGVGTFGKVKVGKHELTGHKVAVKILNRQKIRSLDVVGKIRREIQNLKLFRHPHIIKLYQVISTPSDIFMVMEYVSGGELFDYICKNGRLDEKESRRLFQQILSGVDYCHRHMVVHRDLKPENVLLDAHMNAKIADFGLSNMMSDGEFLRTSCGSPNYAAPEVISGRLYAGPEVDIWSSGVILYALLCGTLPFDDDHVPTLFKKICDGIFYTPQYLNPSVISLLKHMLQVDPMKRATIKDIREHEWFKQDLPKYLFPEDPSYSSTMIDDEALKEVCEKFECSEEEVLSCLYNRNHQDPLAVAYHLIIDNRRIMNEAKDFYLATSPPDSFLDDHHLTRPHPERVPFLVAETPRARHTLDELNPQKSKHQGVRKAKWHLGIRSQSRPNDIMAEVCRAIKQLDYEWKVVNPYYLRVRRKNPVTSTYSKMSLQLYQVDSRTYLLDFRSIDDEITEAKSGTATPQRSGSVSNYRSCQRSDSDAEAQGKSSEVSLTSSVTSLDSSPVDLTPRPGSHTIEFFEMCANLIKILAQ
T3 sequence (P54619 whole entry partner): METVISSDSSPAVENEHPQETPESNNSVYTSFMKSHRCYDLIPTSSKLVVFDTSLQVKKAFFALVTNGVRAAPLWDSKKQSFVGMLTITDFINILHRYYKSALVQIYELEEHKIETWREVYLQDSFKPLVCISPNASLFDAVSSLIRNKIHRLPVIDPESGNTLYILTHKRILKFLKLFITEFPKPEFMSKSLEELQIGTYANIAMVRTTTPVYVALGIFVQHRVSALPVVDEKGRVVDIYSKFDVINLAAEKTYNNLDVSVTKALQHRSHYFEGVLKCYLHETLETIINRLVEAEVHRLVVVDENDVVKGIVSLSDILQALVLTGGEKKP
T2 sequence (Q9UGJ0 whole entry R531G): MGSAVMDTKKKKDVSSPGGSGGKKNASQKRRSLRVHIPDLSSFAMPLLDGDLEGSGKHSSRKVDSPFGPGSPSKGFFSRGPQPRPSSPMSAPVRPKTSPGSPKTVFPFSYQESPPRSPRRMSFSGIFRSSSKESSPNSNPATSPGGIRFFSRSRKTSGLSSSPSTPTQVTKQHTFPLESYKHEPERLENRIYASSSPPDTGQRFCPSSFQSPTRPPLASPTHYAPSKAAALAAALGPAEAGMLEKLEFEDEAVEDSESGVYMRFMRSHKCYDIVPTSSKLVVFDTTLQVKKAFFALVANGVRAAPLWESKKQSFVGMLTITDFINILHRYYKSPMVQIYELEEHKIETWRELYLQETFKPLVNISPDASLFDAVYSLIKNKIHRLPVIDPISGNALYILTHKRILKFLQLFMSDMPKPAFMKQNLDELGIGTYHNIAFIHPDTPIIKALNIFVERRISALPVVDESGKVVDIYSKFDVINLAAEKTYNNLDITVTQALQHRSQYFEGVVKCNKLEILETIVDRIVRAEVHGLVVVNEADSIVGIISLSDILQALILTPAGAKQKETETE
T5 sequence (Q13131 1-312): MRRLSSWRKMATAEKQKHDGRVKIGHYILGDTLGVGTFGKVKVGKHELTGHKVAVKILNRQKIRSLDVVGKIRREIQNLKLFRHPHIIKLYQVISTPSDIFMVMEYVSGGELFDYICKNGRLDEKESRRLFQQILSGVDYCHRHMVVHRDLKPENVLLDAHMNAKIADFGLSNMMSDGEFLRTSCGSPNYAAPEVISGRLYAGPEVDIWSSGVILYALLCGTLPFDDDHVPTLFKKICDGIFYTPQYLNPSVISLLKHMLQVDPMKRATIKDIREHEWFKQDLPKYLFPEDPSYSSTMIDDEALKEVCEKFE
T4 sequence (Q13131 whole entry): as the sequence (Q13131 whole entry) above
T4 sequence (P54619 whole entry partner): as the sequence (P54619 whole entry partner) above
T1 sequence (Q9UGJ0 whole entry): as the sequence (Q9UGJ0 whole entry R531G) above, with G531R counted along it

Compound | AMPK activity (AMPK-γ2 (WT)) | AMPK activity [1] | cellular oxygen uptake (HEK293 cells) | AMPK activity (AMPK-α1 (WT); WT FLAG-α1 (comparison with AT mutant), 1 hr) | increase in activity and Thr172 phosphorylation (AMPK-α1 (WT); WT FLAG-α1, 100 μM, relative to DMSO control) | AMPK activity and Thr172 phosphorylation (AMPK-α1 (WT); 1 hr) | kinase activity / Thr172 phosphorylation [2] | kinase activity / Thr172 phosphorylation [3] | concentrations that rapidly inhibited cellular oxygen uptake (HEK293 cells)
CN(C)S(=O)(=O)c1ccc2c(c1)/C(=C/c1cc3c([nH]1)CCCC3)C(=O)N2 [SU6656] | activated AMPK and enhanced Thr172 phosphorylation in both WT and RG cells | activated AMPK and enhanced Thr172 phosphorylation in both WT and RG cells | no effects | robustly activated | 3 fold | activated AMPK and caused Thr172 phosphorylation | increased kinase activity | increased kinase activity | 
COc1ccc2cc3[n+](cc2c1OC)CCc1cc2c(cc1-3)OCO2 [berberine] | activated AMPK in the WT |  |  |  |  | activated AMPK and caused Thr172 phosphorylation | doing this with the endogenous complexes | failed to activate or cause Thr172 phosphorylation | 
CNC(=O)c1cc(Oc2ccc(NC(=O)Nc3ccc(Cl)c(C(F)(F)F)c3)cc2)ccn1 [sorafenib] |  | Neither AMPK activity nor Thr172 phosphorylation were significantly elevated |  |  |  |  |  |  | 3 to 30 µM
